Experimental findings from US8119641B2, “1H-furo[3,2-C]pyrazole compounds useful as kinase inhibitors” (Nerviano Medical Sciences S.R.L., priority 2006, dated 2012) are described below.

The test system of test [1] is human colon cancer cell line HCT-116. Put plainly: In vitro cell proliferation assay. Format: cell-based. Conditions: HCT-116, 72 hours of treatment, read-out: Cell Antiproliferation IC50. How it is done: The compounds of the invention were further tested, in vitro to assess the anti-proliferative effect onto cell cultures.
In Vitro Cell Proliferation Assay
The human colon cancer cell line HCT-116 was seeded at 5000 cells/cm^2 in 24 wells plate (Costar) using F12 medium (Gibco) supplemented with 10% FCS (EuroClone, Italy) 2 mM L-glutamine and 1% penicillin/streptomycin and maintained at 37° C., 5% CO2 and 96% relative humidity. The following day, plates were treated in duplicates with 5 ul of an appropriate dilution of compounds starting from a 10 mM stock in DMSO. Two untreated control wells were included in each plate. After 72 hours of treatment, medium was withdrawn and cells detached from each well using 0.5 mL of 0.05% (w/v) Trypsin, 0.02% (w/v) EDTA (Gibco) Samples were diluted with 9.5 mL of Isoton (Coulter) and counted using a Multisizer 3 cell counter (Beckman Coulter). Data were evaluated as percent of the control wells, % of CTR=(Treated−Blank)/(Control−Blank). IC50 values were calculated by LSW/Data Analysis using Microsoft Excel sigmoidal curve fitting.

For another test, the target named is T1, Aurora-2 (Homo sapiens, UniProt O14965).
T1 sequence (O14965 1-403): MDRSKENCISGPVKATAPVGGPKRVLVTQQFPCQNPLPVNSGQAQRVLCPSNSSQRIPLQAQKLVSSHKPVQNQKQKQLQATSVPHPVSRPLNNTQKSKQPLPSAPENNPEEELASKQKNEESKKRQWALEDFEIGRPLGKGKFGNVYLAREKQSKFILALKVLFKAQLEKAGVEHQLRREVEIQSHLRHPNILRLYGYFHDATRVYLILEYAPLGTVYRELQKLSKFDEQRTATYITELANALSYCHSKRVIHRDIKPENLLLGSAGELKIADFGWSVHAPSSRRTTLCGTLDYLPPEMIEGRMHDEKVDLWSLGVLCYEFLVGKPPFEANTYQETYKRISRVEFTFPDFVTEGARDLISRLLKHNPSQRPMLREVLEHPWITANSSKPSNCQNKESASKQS
Put plainly: Inhibition assay of Aurora-2 activity (SPA). Type of test: biochemical. How it is done: The inhibiting activity and the potency of selected compounds is determined through a method of assay based on the use of the SPA technology (Amersham Pharmacia Biotech).
The assay consists of the transfer of radioactivity labelled phosphate moiety by the kinase to a biotinylated substrate. The resulting 33P-labelled biotinylated product is allowed to bind to streptavidin-coated SPA beads (biotin capacity 130 pmol/mg), and light emitted was measured in a scintillation counter.
Inhibition Assay of Aurora-2 Activity
Kinase reaction: 8 μM biotinylated peptide (4 repeats of LRRWSLG), 10 μM ATP (0.5 uCi P^33γ-ATP), 7.5 ng Aurora 2, inhibitor in a final volume of 30 μl buffer (HEPES 50 mM pH 7.0, MgCl2 10 mM, 1 mM DTT, 0.2 mg/mL BSA, 3 μM orthovanadate) were added to each well of a 96 U bottom well plate. After 60 minutes at room temperature incubation, reaction was stopped and biotinylated peptide captured by adding 100 μl of bead suspension.
Stratification: 100 μl of CsCl 5 M were added to each well and let stand 4 hour before radioactivity was counted in the Top-Count instrument.
IC50 determination: inhibitors were tested at different concentrations ranging from 0.0015 to 10 μM. […]

SMILES strings stand for the structures.

`CC(C)(NC(=O)c1cc2[nH]nc(NC(=O)c3ccccc3NC(=O)c3ccc[nH]3)c2o1)c1ccccc1` [(1), 3-{2-[(1H-Pyrrole-2-carbonyl)-amino]-benzoylamino}-1H-furo[3,2-c]pyrazole-5-carboxylic acid (1-methyl-1-phenyl-ethyl)-amide]: the figures for the IC50 (in test [1]; against Aurora-2) were 5 nM and 6 nM, respectively.
